# Results reported in patent publication US6451856B1, “Carnitine supplemented diets for gestating and lactating swine” (Lonza Inc., priority 1996, dated 2002).
# Assays:
# Format in all cases: in vivo, swine
# [1] = system: sows (PIC Line C-15x326); experiment: Effect of L-carnitine fed during gestation, lactation or both on sow and litter performance; conditions: for Litter birth weight / Litter weight at weaning / Litter weight gain / Pig birth weight / Pig wean weight / Pig weight gain / Survivability: 50 ppm L-carnitine in diet; for Pigs weaned per litter / Average daily feed intake, overall / Average daily feed intake, wk 1 / Average daily feed intake, wk 2: 50 ppm L-carnitine; for Pigs weaned per litter: pigs per litter on day 2 as covariate; for Average daily feed intake, overall / Average daily feed intake, wk 1 / Average daily feed intake, wk 2: sow lactation feed intake
# Text: A total of 307 sows (PIC Line C-15x326) were used to determine the effect of feeding 50 ppm L-carnitine on the sow and litter performance. Sows were randomly assigned to either control or test dietary treatments. The three test treatments were designated as follows: (i) control/carnitine (in which carnitine was supplemented only during the period of lactation); (ii) carnitine/control (in which carnitine was supplemented only during the period of gestation) and (iii) carnitine/carnitine (in which carnitine was supplemented during the periods of both gestation and lactation).
# A gestation diet was formulated to contain nutrients in excess of NRC (1988) estimates, and included 79.51% milo; 15.22% soybean meal (46.5% CP); 2.51% monocalcium phosphate; 1.11% limestone; 0.5% sodium chloride; 0.25% sow premix; 0.25% vitamin premix; and 0.15% trace element premix. This diet contained 0.65% total lysine, 0.95% Ca and 0.85% P. Experimental gestation diet contained 50 ppm L-carnitine. Sows were fed 4 lb of diet/day once a day until farrowing. Sows were weighed and last rib fat debt was recorded at day 110 of gestation. At farrowing, a number of pigs born live, stillborn, and mummies were recorded. Individual pig weight and litter weight were also recorded. Within 48 hours from farrowing, litters were equalized within dietary treatment.
# A lactation diet was formulated to contain nutrients in excess of NRC (1988) estimates, and included 62.91% milo; 28.41% soybean meal (46.5% CP); 4% soybean oil; 2.33% monocalcium phosphate; 1.12% limestone; 0.5% sodium chloride; 0.25% sow premix; 0.25% vitamin premix; 0.15% trace element premix; 0.05% vitamin E and 0.02% DL-Methionine. This diet contained 1.0% total lysine, 0.95% Ca and 0.85% P. Experimental lactation diet contained 50 ppm L-carnitine. The sows were allowed ad libitum access to feed. Feed intake was measured weekly. Pigs were weighed at weaning to determine pig and litter weight. Sows were ultrasonically scanned for last rib fat debt at weaning.
# The data were analyzed by analysis of variance using GLM procedure of SAS (1988).
# [2] = system: sows (PIC Line C-15x326); experiment: Sow plasma analysis for insulin and IGF-I
# Experimental: Sows were bled at day 10, 60, 90 and 110 of gestation and at weaning. Plasma samples were analyzed for concentration of free and total carnitine, insulin, and insulin-like growth factor I (IGF-I). The data were analyzed by analysis of variance using GLM procedure of SAS (1988).
# [3] = system: sows (PIC Line C-15x326); experiment: Effects of L-carnitine on subsequent reproductive performance (second reproductive cycle, no carnitine); conditions: for Days to estrus / Farrowing rate / Number born live / Number total born: first-cycle 50 ppm L-carnitine; for Farrowing rate / Number born live / Number total born: second cycle
# Experimental: The effect of carnitine on subsequent reproductive performance was also measured. Sows fed diets described above were continued to be monitored during the subsequent, i.e., second cycle of reproduction. The sow diets were not supplemented with carnitine during the second cycle of reproduction to determine if carnitine had any residual effect. The total number of pigs born and the number of pigs born alive were determined. Referring to Table 5, feeding carnitine in the first reproductive cycle increased the total number of born pigs and the number of pigs born alive in the second reproductive cycle.
# [4] = gestation and lactation (carnitine/carnitine)
# [5] = gestation only (carnitine/control)
# [6] = gestation only (carnitine/control), listed as Carnitine
# [7] = lactation only (control/carnitine)
# [8] = carnitine fed in the first reproductive cycle, none in the second
compound,measurement,setting,value
C[N+](C)(C)C[C@H](O)CC(=O)[O-] [L-carnitine],Litter birth weight,[1]; [4],34.49 lb
same,Litter weight at weaning,[1]; [4],99.03 lb
same,Litter weight gain,[1]; [4],64.25 lb
same,Pig birth weight,[1]; [4],3.53 lb
same,Pig wean weight,[1]; [4],10.99 lb
same,Pig weight gain,[1]; [4],7.45 lb
same,Survivability,[1]; [4],90.45%
same,Litter birth weight,[1]; [5],increased
same,Litter weight at weaning,[1]; [5],increased
same,Litter weight gain,[1]; [5],increased
same,Pig birth weight,[1]; [5],increased
same,Pig wean weight,[1]; [5],increased
same,Pig weight gain,[1]; [5],increased
same,Survivability,[1]; [5],86.87%
same,Litter birth weight,[1]; [6],34.46 lb
same,Litter weight at weaning,[1]; [6],97.69 lb
same,Litter weight gain,[1]; [6],62.83 lb
same,Pig birth weight,[1]; [6],3.45 lb
same,Pig wean weight,[1]; [6],10.94 lb
same,Pig weight gain,[1]; [6],7.52 lb
same,Litter birth weight,[1]; [7],32.73 lb
same,Litter weight at weaning,[1]; [7],91.91 lb
same,Litter weight gain,[1]; [7],58.59 lb
same,Pig birth weight,[1]; [7],3.32 lb
same,Pig wean weight,[1]; [7],10.38 lb
same,Pig weight gain,[1]; [7],7.11 lb
same,Survivability,[1]; [7],86.08%
same,Pigs weaned per litter,[1]; [4],9.00
same,Pigs weaned per litter,[1]; [5],9.02
same,Pigs weaned per litter,[1]; [7],8.89
same,sow weight at weaning,"[1]; L-carnitine during gestation only, control 493, P<0.01",511 lb
same,sow weight at weaning,"[1]; carnitine during both gestation and lactation, control 493 lb",524 lb
same,sow or litter performance,"[1]; carnitine during the period of lactation only, versus control",no differences were observed
same,number of stillborn pigs per litter,"[1]; carnitine-supplemented diet during gestation only, control 0.76, P<0.02",0.49 stillborn pigs/litter
same,"Average daily feed intake, overall",[1]; [4],13.58 lb
same,"Average daily feed intake, wk 1",[1]; [4],11.88 lb
same,"Average daily feed intake, wk 2",[1]; [4],14.87 lb
same,"Average daily feed intake, overall",[1]; [5],13.16 lb
same,"Average daily feed intake, wk 1",[1]; [5],11.52 lb
same,"Average daily feed intake, wk 2",[1]; [5],14.70 lb
same,"Average daily feed intake, overall",[1]; [7],13.01 lb
same,"Average daily feed intake, wk 1",[1]; [7],11.55 lb
same,"Average daily feed intake, wk 2",[1]; [7],14.41 lb
same,insulin levels in the plasma of sows,"[2]; days 10 and 60 of gestation, P<0.07",tended to increase
same,IGF-I concentration in sow plasma,[2]; gestation days 60 and 90,tended to increase
same,number of pigs born alive in the second reproductive cycle,[3]; [8],increased
same,total number of born pigs in the second reproductive cycle,[3]; [8],increased
same,Days to estrus,[3]; [4],5.37 days
same,Days to estrus,[3]; [5],6.11 days
same,Days to estrus,[3]; [7],5.82 days
same,Farrowing rate,[3]; [4],93.2%
same,Number born live,[3]; [4],12.03
same,Number total born,[3]; [4],12.85
same,Farrowing rate,[3]; [5],86.5%
same,Number born live,[3]; [5],11.17
same,Number total born,[3]; [5],11.97
same,Farrowing rate,[3]; [7],96.3%
same,Number born live,[3]; [7],11.22
same,Number total born,[3]; [7],12.26
